{"source": "patent US10046038B2", "about": "“Leptospira with increased antigenic mass” (priority 2012, dated 2018)", "key": {"[1]": {"system": "Leptospira serogroup Pomona", "method": "(§1) All experiments were performed in 0.5, 2 or 20 L working volume, computer-controlled fermenters (Sartorius), which were filled with 0.5, 1 or 10 L sterile-filtered EMJH medium, respectively. The standard EMJH medium contained 1% w/v BSA and 0.125% w/v polysorbate 80. The pH of the medium was 7.4 ±0.1 at start. The fermenter was inoculated with 5% v/v serogroup lcterohaemorrhagiae pre-culture (passage 5), giving an inoculation density of 2-4×10^7 cells/ml at day 0.\n(§2) Daily 5 ml samples were taken aseptically, directly from the fermenter, for analyses of total cell count (by Petroff-Hausser counting chamber); antigenic mass (by antigen amount Elisa); inactivated cells; and for profiling of the fatty acid type and-relative amounts (by gas chromatography) in the culture medium.\n(§3) Samples were inactivated with 0.1 or 0.2% v/v BPL, at 29° C. for 16-24 hours. The inactivated Leptospira were tested in an antigen Elisa within 24 hours.\n(§4) For a reference see: R. A. Hartskeerl et al., (International course on laboratory methods for the diagnosis of Leptospirosis, 4th Edition, 1 Apr. 2004. Royal Tropical Institute, Amsterdam).\n(§5) The Elisa's were set up as capture assays, whereby the same moab was used for coating and for detection.\n(§6) A reference standard was prepared for each Leptospira strain that was tested by antigen Elisa. The standard is a batch of monovalent Leptospira antigen, from inactivated cells. This was prepared using common techniques, essentially by proliferating a specific strain of Leptospira in EMJH medium as described above, and was inactivated as described before. Next the standard was concentrated and/or diluted in phosphate buffered saline, to contain about 1×10^9 cells/ml. An arbitrary number of antigen units was affixed to the sample, for example: 1000 Units/ml. When the standard needed replenishing, a subsequent preparation of the same standard, was compared and titrated alongside the old standard several times, before replacing it.\n(§7) As before, the average antigenic mass score by Elisa was calculated per 1×10^9 cells (pre-inactivation). […] The average antigenic mass 1×10^9 cells of the reference culture was set at 0% increase.\n(§8) Both alpha-and gamma C18:3 were purchased as pure chemicals (>98%). Shortly before use for supplementation, they were diluted in pure ethanol to 10% or 20% v/v, depending on the amount of C18:3 that was to be added to a culture. This dilution in ethanol was added to a Leptospira culture by addition in 5 doses, divided over a period of 4 hours."}, "[2]": {"system": "Leptospira serogroup Canicola (strain WS 280503)", "method": "as §1, §2, §3, §4, §5, §6, §7, §8"}, "[3]": {"system": "Leptospira serogroup Icterohaemorrhagiae", "assay": "Biomass (total cell count) and toxicity in fermenter culture", "type": "cell-based, L. interrogans (sensu lato)", "method": "(§9) During all fermentation experiments the temperature was controlled at about 29° C. The medium was aerated with headspace airflow, and the dissolved oxygen (pO2) concentration was controlled by automatic variation of the agitation-rate, to maintain a set pO2 concentration. Temperature, pH and pO2 concentration were monitored online, but pH and foam formation were not controlled."}, "[4]": {"system": "Leptospira serogroup Tarassovi", "type": "cell-based, L. interrogans (sensu lato)", "method": "as §1\n(§10) Supplementation was done either with pure linoleic acid (Sigma Aldrich, >99% pure) as a 10% v/v stock in absolute ethanol (JT Baker). Alternatively, linoleic acid was supplemented by using a BSA that was created with a high level of linoleic acid (high LA BSA). This high LA BSA was used either to replace a standard BSA in EMJH medium, or was used in addition to BSA in the EMJH medium, in which case it was added as a 25% w/v stock solution in sterile water. The high LA BSA or the pure linoleic acid/ethanol supplements were fed to a fermenter over the course of 4 hours, at 0.1-0.2 ml/hour, until the fermenter culture had received a desired total amount of linoleic acid. Different total available levels of linoleic acid have been tested, of between about 5 and 425 μg/ml in the total volume. The fermenter cultures of Leptospira were supplemented at different cell-densities i.e. at early-, mid- or end phase culture.\nas §2, §3, §4, §5, §6, §7\nBoth alpha-and gamma C18:3 were purchased as pure chemicals (>98%)."}, "[5]": {"system": "Leptospira serogroup Australis (serovar Bratislava)", "type": "cell-based, L. interrogans (sensu lato)"}, "[6]": {"system": "Leptospira serogroup Icterohaemorrhagiae", "assay": "Antigenic mass of fermenter culture by antigen Elisa", "type": "cell-based, L. interrogans (sensu lato)", "conditions": "for Ag U/10^9 cells/ml, at 3 days: BSA ingredient in EMJH medium, not supplemented", "method": "A working seed of a strain of L. interrogans was inoculated into EMJH medium and incubated at 29° C. for 3 to 5 days. If needed up to 5 consecutive pre-culture passages could be made, whereby the pre-cultures were visually inspected for sufficient proliferation (turbidity) as criterion for transfer to the next passage.\nas §1, §9\nIn comparative experiments up to 4 fermenters were run in parallel, which started off simultaneously with the same medium and Leptospira inoculum. One fermenter then usually contained only standard EMJH medium and served as reference, while in the others different supplementations of polyunsaturated C18 fatty acid were made.\nas §10, §2, §3, §4, §5\nA reference standard was prepared for each Leptospira strain that was tested by antigen Elisa. The standard is a batch of monovalent Leptospira antigen, from inactivated cells. This was prepared using common techniques, essentially by proliferating a specific strain of Leptospira in EMJH medium as described above, and was inactivated as described before."}, "[7]": {"system": "Leptospira serogroup Grippotyphosa", "type": "cell-based, L. interrogans (sensu lato)"}, "[8]": {"system": "Leptospira serogroup Sejroe (serovar Hardjo)", "assay": "Antigenic mass of fermenter culture by antigen Elisa", "type": "cell-based, L. interrogans (sensu lato)", "conditions": "high LA BSA in EMJH", "method": "as §10, with “culture. Typical mid-phase cell density was at about 5×10^8 cells/ml, which was reached during day 2 of the main incubation. Upon supplementation with linoleic acid from the pure linoleic acid in ethanol stock, sometimes a small decrease in pH was noted, which was corrected by applying some NaOH.” for “culture.”\nIn a next study it was confirmed that the increase in antigenic mass upon supplementation with linoleic acid (C18:2) is a general phenomenon in Leptospira. […]"}, "[9]": {"conditions": "100 μg/ml, alpha vs gamma side by side, FIGS. 19 and 20"}, "[10]": {"conditions": "supplementation at 5×10^8 cells/ml, FIGS. 33-36"}, "[11]": {"conditions": "supplementation at 8×10^8 cells/ml, FIGS. 33-36"}, "[12]": {"conditions": "BSA used in EMJH medium, compared with standard BSA"}}, "note": "Like-named read-outs stand apart in the source and are kept apart here."}
{"compound": "CCC=CCC=CCC=CCCCCCCCC(=O)O", "note": "[alpha C18:3, 9, 12, 15-octadecatrienoic acid]", "values": [{"measurement": "Relative increase in antigenic mass (%)", "setting": "[1]; 100 μg/ml alpha C18:3", "result": 0, "unit": "%"}, {"measurement": "Relative increase in antigenic mass (%)", "setting": "[1]; 200 μg/ml alpha C18:3", "result": 0, "unit": "%"}, {"measurement": "Relative increase in antigenic mass (%)", "setting": "[2]; 200 μg/ml", "result": 107, "unit": "%"}, {"measurement": "Relative increase in antigenic mass (%)", "setting": "[2]; 300 μg/ml", "result": 112, "unit": "%"}, {"measurement": "Relative increase in antigenic mass (%)", "setting": "[2]; 400 μg/ml", "result": 118, "unit": "%"}, {"measurement": "toxicity on the culture", "setting": "[3]; 300 or 400 μg/ml, FIGS. 15 and 16", "result": "toxic effects"}, {"measurement": "Relative increase in antigenic mass (%)", "setting": "[4]; 100 μg/ml alpha C18:3", "result": 59, "unit": "%"}, {"measurement": "Relative increase in antigenic mass (%)", "setting": "[4]; 200 μg/ml alpha C18:3", "result": 141, "unit": "%"}, {"measurement": "Relative increase in antigenic mass (%)", "setting": "[5]; 100 μg/ml alpha C18:3", "result": 40, "unit": "%"}, {"measurement": "Relative increase in antigenic mass (%)", "setting": "[5]; 200 μg/ml alpha C18:3", "result": 62, "unit": "%"}, {"measurement": "increase in relative antigenic mass", "setting": "[6]; 100 μg/ml single fatty acid, FIGS. 37 and 38", "result": 144, "unit": "%"}, {"measurement": "increase in relative antigenic mass", "setting": "[6]; [9]", "result": 122, "unit": "%"}, {"measurement": "increase in antigenic mass", "setting": "[6]; 100 μg/ml, FIGS. 15 and 16, vs unsupplemented reference", "result": 122, "unit": "%"}, {"measurement": "increase in antigenic mass", "setting": "[6]; 200 μg/ml, FIGS. 15 and 16, vs unsupplemented reference", "result": 81, "unit": "%"}, {"measurement": "Relative increase in antigenic mass", "setting": "[6]; supplementation at 1×10^8 cells/ml, FIGS. 33-34", "result": 163, "unit": "%"}, {"measurement": "Relative increase in antigenic mass", "setting": "[6]; [10]", "result": 164, "unit": "%"}, {"measurement": "Relative increase in antigenic mass", "setting": "[6]; [11]", "result": 140, "unit": "%"}, {"measurement": "Relative increase in antigenic mass (%)", "setting": "[7]; 100 μg/ml alpha C18:3", "result": 60, "unit": "%"}, {"measurement": "Relative increase in antigenic mass (%)", "setting": "[7]; 200 μg/ml alpha C18:3", "result": 63, "unit": "%"}]}
{"compound": "high LA BSA: a BSA that was created with a high level of linoleic acid", "values": [{"measurement": "relative Ag. mass (%)", "setting": "[8]; C18:2 total 25 μg/ml (reference = 100), 2 day average", "result": 100, "unit": "%"}, {"measurement": "Antigenic mass, Ag U/10^9 cells/ml", "setting": "[8]; C18:2 total 25 μg/ml, 2 day average (days 5 and 6)", "result": 287, "unit": "Ag U/10^9 cells/ml"}, {"measurement": "antigenic mass", "setting": "[6]; high LA BSA at 1% w/v in EMJH, 25 μg/ml linoleic acid available, average of days 3-5", "result": 1636, "unit": "Ag U/1×10^9 cells"}, {"measurement": "Ag. mass, Ag U/10^9 cells/ml", "setting": "[6]; supplem. high LA BSA giving 50 μg/ml C18:2, total 55 μg/ml, EMJH standard BSA, average of days 3-5", "result": 1612, "unit": "Ag U/10^9 cells/ml"}, {"measurement": "relative Ag. mass (%)", "setting": "[6]; supplem. high LA BSA giving 50 μg/ml C18:2, total 55 μg/ml, non-supplemented = 100, average of days 3-5", "result": 221, "unit": "%"}, {"measurement": "relative Ag. mass (%)", "setting": "[7]; high LA BSA in EMJH, C18:2 total 25 μg/ml (reference = 100), 2 day average", "result": 100, "unit": "%"}, {"measurement": "Antigenic mass, Ag U/10^9 cells/ml", "setting": "[7]; high LA BSA in EMJH, C18:2 total 25 μg/ml, 2 day average (days 4 and 5)", "result": 5074, "unit": "Ag U/10^9 cells/ml"}]}
{"compound": "BSA, Millipore: standard commercial BSA (Millipore)", "values": [{"measurement": "Ag U/10^9 cells/ml, at 3 days", "setting": "[6]", "result": 525, "unit": "Ag U/10^9 cells/ml"}]}
{"compound": "BSA, BovoStar ®: a standard all-purpose BSA from the same manufacturer (Bovogen)", "values": [{"measurement": "Ag U/10^9 cells/ml, at 3 days", "setting": "[6]", "result": 533, "unit": "Ag U/10^9 cells/ml"}]}
{"compound": "CCCCCC=CCC=CCC=CCCCCC(=O)O", "note": "[gamma C18:3, 6,9, 12-octadecatrienoic acid]", "values": [{"measurement": "Relative increase in antigenic mass (%)", "setting": "[1]; 100 μg/ml gamma C18:3", "result": 73, "unit": "%"}, {"measurement": "Relative increase in antigenic mass (%)", "setting": "[2]; 200 μg/ml", "result": 98, "unit": "%"}, {"measurement": "Relative increase in antigenic mass (%)", "setting": "[2]; 300 μg/ml", "result": 83, "unit": "%"}, {"measurement": "toxicity on the culture", "setting": "[3]; 400 μg/ml, FIGS. 17 and 18", "result": "showed toxicity"}, {"measurement": "Relative increase in antigenic mass (%)", "setting": "[4]; 100 μg/ml gamma C18:3", "result": 51, "unit": "%"}, {"measurement": "Relative increase in antigenic mass (%)", "setting": "[5]; 100 μg/ml gamma C18:3", "result": 15, "unit": "%"}, {"measurement": "increase in relative antigenic mass", "setting": "[6]; [9]", "result": 170, "unit": "%"}, {"measurement": "increase in antigenic mass", "setting": "[6]; 200 μg/ml, FIGS. 17 and 18", "result": 114, "unit": "%"}, {"measurement": "increase in antigenic mass", "setting": "[6]; 300 μg/ml, FIGS. 17 and 18", "result": 153, "unit": "%"}, {"measurement": "Relative increase in antigenic mass", "setting": "[6]; supplementation at 2×10^8 cells/ml, FIGS. 35-36", "result": 71, "unit": "%"}, {"measurement": "Relative increase in antigenic mass", "setting": "[6]; [10]", "result": 81, "unit": "%"}, {"measurement": "Relative increase in antigenic mass", "setting": "[6]; [11]", "result": 162, "unit": "%"}, {"measurement": "Relative increase in antigenic mass (%)", "setting": "[7]; 100 μg/ml gamma C18:3", "result": 57, "unit": "%"}]}
{"compound": "BSA, BovoLep ®: standard BSA enriched with a number of vegetable fatty acids, recommended for promoting growth of Leptospira (Bovogen, Australia)", "values": [{"measurement": "effect on biomass", "setting": "[3]; [12]", "result": "did increase the biomass"}, {"measurement": "Ag U/10^9 cells/ml, at 3 days", "setting": "[6]", "result": 498, "unit": "Ag U/10^9 cells/ml"}, {"measurement": "effect on antigenic mass", "setting": "[6]; [12]", "result": "no significant effect"}]}
